Assay results reported in PMC8151276, “An Integrated Approach toward NanoBRET Tracers for Analysis of GPCR Ligand Engagement” (Molecules, 2021).

Experiments:
Assay type in all cases: binding
FZD5 = biological target: T1, FZD5 (Homo sapiens, UniProt Q13467); experiment: NanoBRET screen HiBiT-FZD5 in HEK293
T1 construct: purchased Promega (in-house HiBiT-GPCR construct library, NanoBRET)
Method: (§1) Each tracer candidate was screened across the entire library of HiBiT-GPCR constructs using NanoBRET as the detection modality. As depicted in Figure 4A, the specificity of interactions was evaluated through decrease in BRET due to competitive displacement of a bound tracer by excess parental compound. Each tracer was analyzed for binding to each HiBiT-GPCR fusion in the absence and in the presence of competing parental compound. Briefly, HEK293 cells were transfected with HiBiT-GPCR constructs diluted into promoterless DNA to reduce expression and maximize translocation to the cell surface. Each tracer candidate was then screened at concentrations of 1 μM and 0.1 μM across cells expressing these fusions. Cells were treated for 1.5 h with tracer either alone or in the presence of 20 μM competing parental compound (i.e., control). BRET was measured upon addition of purified LgBiT and subsequent complementation with HiBiT genetically fused to a GPCR. The specificity of interactions was assessed through a decrease in BRET signal due to competitive displacement of the bound tracer. To further gauge the robustness of these interactions, the fold response over the control (i.e., BRETtracer/BRETcontrol) was calculated. We chose a 1.5-fold response, which translates to ≥7-fold signal over noise as the minimal threshold required to score an interaction as positive. […]. Below we highlight the screening results obtained for our exemplary fluorescent tracers based on Clozapine, Amitriptyline and AZD1283.
(§2) HiBiT-GPCR DNA constructs were diluted in 10 mM Tris pH 8 to a final concentration of 0.01 μg/μL, arrayed in 96-well plates and stored at −20 °C. For transfection, HEK293 cells were suspended in Opti-MEM (without phenol red) supplemented with 2% fetal bovine serum (Seradigm) and 100 units/mL penicillin–streptomycin (Gibco) at a final concentration of 220,000 cells/mL and dispensed into white 96-well plates at 90 μL/well. Subsequent transfections and screens were carried using an Agilent Bravo Automated Liquid Handling Platform. First, the 96-well HiBiT DNA arrays were diluted 25-fold in Opti-MEM (without serum or phenol red) to a final concentration of 0.0004 μg/μL and 20 μL of the diluted DNAs were transferred into new 96-well plates. Next, promoterless carrier DNA (1 μg/μL) was diluted 25-fold (0.04 μg/μL) and then dispensed into the diluted arrays at 20 μL/well. Following brief mixing, Viafect transfection reagent (Promega) diluted 16-fold into Opti-MEM was dispensed into the plates at 40 μL/well. After mixing by pipetting, plates were incubated for 10 min on the pipetting station deck. The DNA-transfection reagent complexes were then added to plates containing cells. To facilitate the screen, 10 μL of DNA-transfection reagent complexes were added in duplicates to the top 4 and bottom 4 rows, resulting in two identical 48-well arrays per plate. Plates with transfected cells were incubated for 18–20 h at 37 °C/5% CO2. A screen of each tracer across the entire library using two different concentrations requires duplicate plates of transfected cells. Depending on the number of tracers being screened, transfections can be scaled up using the same ratios. The next day, for each tracer, four 20× screening solutions in tracer dilution buffer (Promega) were prepared: two duplicates at final concentration of 20 μM and two duplicates at a final concentration of 2 μM. A competing unmodified compound was added to one of each duplicate at a final concentration of 400 μM. The four resulting solutions were diluted 4-fold in Opti-MEM without serum or phenol red to generate 5× solutions (5 µM and 0.5 µM tracer +/− 100 μM competing compound). To screen the library, a BioTek MultiFlo FX liquid dispenser was used to dispense 22.5 µL of tracer solution to the top 4 rows and 22.5 µL tracer + competing compound solution to the 4 bottom rows. Plates were briefly mixed on an orbital shaker and incubated for 1.5 h at room temperature. […]

HCRTR2 = biological target: T2, HCRTR2 (Homo sapiens, UniProt O43614); experiment: NanoBRET screen HiBiT-HCRTR2 in HEK293
T2 construct: purchased Promega (in-house HiBiT-GPCR construct library, NanoBRET)
T2 sequence (O43614 1-444): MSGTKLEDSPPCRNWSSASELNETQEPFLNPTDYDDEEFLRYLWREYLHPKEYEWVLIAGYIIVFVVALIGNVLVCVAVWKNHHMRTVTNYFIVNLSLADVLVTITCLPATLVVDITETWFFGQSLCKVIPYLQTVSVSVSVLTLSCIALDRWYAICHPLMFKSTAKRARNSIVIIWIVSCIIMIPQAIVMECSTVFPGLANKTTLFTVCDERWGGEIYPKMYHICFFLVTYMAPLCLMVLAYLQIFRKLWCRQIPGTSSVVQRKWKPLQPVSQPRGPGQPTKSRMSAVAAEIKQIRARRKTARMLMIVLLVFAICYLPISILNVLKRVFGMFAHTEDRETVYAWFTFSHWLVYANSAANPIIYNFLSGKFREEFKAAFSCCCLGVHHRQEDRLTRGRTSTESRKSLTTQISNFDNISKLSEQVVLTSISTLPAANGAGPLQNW
Method: as §1, §2

GRM2 = biological target: T3, GRM2 (Homo sapiens, UniProt Q14416); experiment: NanoBRET screen HiBiT-GRM2 in HEK293
T3 construct: purchased Promega (in-house HiBiT-GPCR construct library, NanoBRET)
T3 sequence (Q14416 19-872): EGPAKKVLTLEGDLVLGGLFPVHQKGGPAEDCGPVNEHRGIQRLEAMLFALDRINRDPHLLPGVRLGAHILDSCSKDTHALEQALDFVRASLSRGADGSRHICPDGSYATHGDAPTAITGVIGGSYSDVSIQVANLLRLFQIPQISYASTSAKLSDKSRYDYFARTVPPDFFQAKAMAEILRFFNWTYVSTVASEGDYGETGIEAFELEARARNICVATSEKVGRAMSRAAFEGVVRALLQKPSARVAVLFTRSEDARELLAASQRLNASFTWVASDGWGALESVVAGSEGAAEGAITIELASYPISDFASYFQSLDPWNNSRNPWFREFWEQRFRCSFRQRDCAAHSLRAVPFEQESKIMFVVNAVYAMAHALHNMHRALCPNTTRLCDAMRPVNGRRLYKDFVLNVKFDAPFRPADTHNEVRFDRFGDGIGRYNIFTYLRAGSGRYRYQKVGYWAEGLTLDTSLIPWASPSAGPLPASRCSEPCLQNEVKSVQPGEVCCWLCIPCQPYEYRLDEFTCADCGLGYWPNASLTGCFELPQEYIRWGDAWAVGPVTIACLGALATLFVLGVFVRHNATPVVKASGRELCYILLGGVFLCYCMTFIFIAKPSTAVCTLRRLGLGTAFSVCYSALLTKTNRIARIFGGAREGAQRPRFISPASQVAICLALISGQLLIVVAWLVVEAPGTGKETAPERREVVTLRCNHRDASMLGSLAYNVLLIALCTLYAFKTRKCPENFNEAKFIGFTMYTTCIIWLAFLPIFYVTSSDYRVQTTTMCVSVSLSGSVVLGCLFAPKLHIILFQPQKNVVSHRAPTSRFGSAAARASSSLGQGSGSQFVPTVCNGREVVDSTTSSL
Method: as §1, §2

[1] = tracer at 1μM, listed as amitriptyline-b-2-NB590

T1 sequence (Q13467 27-585): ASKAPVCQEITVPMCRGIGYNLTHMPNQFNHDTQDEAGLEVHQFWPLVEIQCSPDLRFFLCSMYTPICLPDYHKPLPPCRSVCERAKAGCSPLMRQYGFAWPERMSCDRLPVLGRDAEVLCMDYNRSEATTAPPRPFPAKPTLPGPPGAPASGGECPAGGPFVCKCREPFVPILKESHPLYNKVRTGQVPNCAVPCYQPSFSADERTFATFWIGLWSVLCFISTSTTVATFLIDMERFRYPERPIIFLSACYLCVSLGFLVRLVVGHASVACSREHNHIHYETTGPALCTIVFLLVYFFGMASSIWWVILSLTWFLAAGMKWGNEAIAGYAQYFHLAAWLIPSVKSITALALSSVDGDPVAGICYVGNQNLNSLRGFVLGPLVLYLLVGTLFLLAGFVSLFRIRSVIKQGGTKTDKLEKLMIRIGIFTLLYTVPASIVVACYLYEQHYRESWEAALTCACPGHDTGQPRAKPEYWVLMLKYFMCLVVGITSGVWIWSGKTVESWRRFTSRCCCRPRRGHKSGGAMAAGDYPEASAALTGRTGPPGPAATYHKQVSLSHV

`CCOC(=O)c1cc(C#N)c(N2CCC(C(=O)NS(=O)(=O)Cc3ccccc3/C=C/C(=O)NCCNC(=O)CCc3ccc4n3[B-](F)(F)[N+]3=C(c5ccc[nH]5)C=CC3=C4)CC2)nc1C` [AZD1283-1-NB590] was tested, and the “NanoBRET Fold Response” value (FZD5; FZD5, 0.1μM) was 1.07, the “NanoBRET Fold Response” value (FZD5; FZD5, 1μM) was 1.05 and the “NanoBRET Fold Response” value (HCRTR2; HCRTR2, 0.1μM) was 1.01. For the same compound, the “NanoBRET Fold Response” value (HCRTR2; HCRTR2, 1μM) was 1.01, the “NanoBRET Fold Response” value (GRM2; GRM2, 0.1μM) was 1.00 and the “NanoBRET Fold Response” value (GRM2; GRM2, 1μM) was 0.43.

In the case of `N#CN=C(NCCCOc1cccc(CN2CCCCC2)c1)NCCNC(=O)CCOCCOCCOCCOCCNC(=O)CCc1ccc2n1[B-](F)(F)[N+]1=C(c3ccc[nH]3)C=CC1=C2` [Aminopotentidine-2-NB590], the “NanoBRET Fold Response” value (FZD5; FZD5, tracer 0.1μM) is reported as 1.06, the “NanoBRET Fold Response” value (FZD5; FZD5, tracer 1μM) is reported as 1.05 and the “NanoBRET Fold Response” value (HCRTR2; HCRTR2, tracer 0.1μM) is reported as 1.01. The “NanoBRET Fold Response” value (HCRTR2; HCRTR2, tracer 1μM) was 0.97, the “NanoBRET Fold Response” value (GRM2; GRM2, tracer 0.1μM) was 1.05 and the “NanoBRET Fold Response” value (GRM2; GRM2, tracer 1μM) was 0.99.

`CN(C)CCC=C1c2ccccc2CCc2ccc(C(=O)NCCNC(=O)CCOCCOCCOCCOCCNC(=O)CCc3ccc4n3[B-](F)(F)[N+]3=C(c5ccc[nH]5)C=CC3=C4)cc21` [Amitriptyline-a-2-NB590] was tested, and the “NanoBRET Fold Response” value (FZD5; tracer at 0.1μM) was 1.01, the “NanoBRET Fold Response” value (FZD5; tracer at 1μM) was 0.97 and the “NanoBRET Fold Response” value (HCRTR2; tracer at 0.1μM) was 1.05. For the same compound, the “NanoBRET Fold Response” value (HCRTR2; tracer at 1μM) was 1.08.

For `CN(C)CCC=C1c2ccccc2CCc2ccc(C(=O)NCCNC(=O)CCOCCOCCOCCOCCNC(=O)CCc3ccc4n3[B-](F)(F)[N+]3=C(c5ccc[nH]5)C=CC3=C4)cc21` [Amitriptyline-b-2-NB590], the “NanoBRET Fold Response” value (FZD5; tracer at 0.1μM) was 0.97, the “NanoBRET Fold Response” value (FZD5; [1]) was 0.99 and the “NanoBRET Fold Response” value (HCRTR2; tracer at 0.1μM, listed as amitriptyline-b-2-NB590) was 1.00. For the same compound, the “NanoBRET Fold Response” value (HCRTR2; [1]) was 0.98, the “NanoBRET Fold Response” value (GRM2; GRM2, tracer 0.1μM) was 0.97 and the “NanoBRET Fold Response” value (GRM2; GRM2, tracer 1μM) was 0.98.

In the case of `CN(CCC=C1c2ccccc2CCc2ccccc21)C(=O)CCOCCOCCOCCOCCNC(=O)CCc1ccc2n1[B-](F)(F)[N+]1=C(c3ccc[nH]3)C=CC1=C2` [Amitriptyline-e-2-NB590], the “NanoBRET Fold Response” value (FZD5; tracer at 1μM) is reported as 0.98.

`COc1ccc2c(n1)c(CCNC(C)=O)cn2CCNC(=O)CCc1ccc2n1[B-](F)(F)[N+]1=C(c3ccc[nH]3)C=CC1=C2` [Azamelatonin-1-NB590] was tested, and the “NanoBRET Fold Response” value (FZD5; 0.1μM tracer) was 0.88, the “NanoBRET Fold Response” value (FZD5; 1μM tracer) was 0.88 and the “NanoBRET Fold Response” value (HCRTR2; 0.1μM tracer) was 1.04. For the same compound, the “NanoBRET Fold Response” value (HCRTR2; 1μM tracer) was 1.30, the “NanoBRET Fold Response” value (GRM2; 0.1μM tracer) was 1.19 and the “NanoBRET Fold Response” value (GRM2; 1μM tracer) was 1.00.

In the case of `COc1ccc2[nH]c(-c3ccc(CNC(=O)CCOCCOCCOCCOCCNC(=O)CCc4ccc5n4[B-](F)(F)[N+]4=C(c6ccc[nH]6)C=CC4=C5)cc3)c(CCNC(C)=O)c2n1` [AzomelatoninICO9-2-NB590], the “NanoBRET Fold Response” value (FZD5; 0.1μM tracer) is reported as 0.97, the “NanoBRET Fold Response” value (FZD5; 1μM tracer) is reported as 0.93 and the “NanoBRET Fold Response” value (HCRTR2; 0.1μM tracer) is reported as 1.02. The “NanoBRET Fold Response” value (HCRTR2; 1μM tracer) was 1.08, the “NanoBRET Fold Response” value (GRM2; 0.1μM tracer) was 1.11 and the “NanoBRET Fold Response” value (GRM2; 1μM tracer) was 0.95.

`O=C(CCOCCOCCOCCOCCNC(=O)CCc1ccc2n1[B-](F)(F)[N+]1=C(c3ccc[nH]3)C=CC1=C2)NCCCN1CCN(C2=Nc3cc(Cl)ccc3Nc3ccccc32)CC1` [Clozapine-a-2-NB590] was tested, and the “NanoBRET Fold Response” value (FZD5; FZD5, 0.1μM tracer) was 1.15, the “NanoBRET Fold Response” value (FZD5; FZD5, 1μM tracer) was 0.95 and the “NanoBRET Fold Response” value (HCRTR2; HCRTR2, 0.1μM tracer) was 1.05. For the same compound, the “NanoBRET Fold Response” value (HCRTR2; HCRTR2, 1μM tracer) was 1.16, the “NanoBRET Fold Response” value (GRM2; GRM2, 0.1μM tracer) was 1.03 and the “NanoBRET Fold Response” value (GRM2; GRM2, 1μM tracer) was 1.01.
